Measurements: patent US20090325156A1, “MATERIALS AND METHODS FOR ABCB1 POLYMORPHIC VARIANT SCREENING, DIAGNOSIS, AND TREATMENT” (Government of the United States of America, as Represented …, priority 2005, published 2009)
Where two headings read alike, the source gives them in different places.

Key:
[1] = tested on: patients with T-cell lymphoma; assay: Hematological toxicity: percentage decrease in platelet count versus FK228 AUC (sigmoid maximum effect model); assay type: in vivo, human; settings: P<0.001, FIG. 1
Protocol: Complete blood cell counts with differential are obtained immediately prior to FK228 administration and on days 2, 9, and 16 to evaluate FK228-related myelosuppression. Multiple surface electrocardiograms (ECGs) are obtained immediately before FK228 administration, and at 4 hours after the start of FK228 administration, to evaluate the ability of FK228 to delay cardiac repolarization. This effect is manifested on the ECG as prolongation of the QT interval. The QT interval is transformed into the heart-rate independent corrected value known as the QTc interval. […]
Relationships between various exposure measures, for example, plasma AUC, and hematological and cardiac toxicity are evaluated by sigmoid maximum-effect models. […] Hematological pharmacodynamics are evaluated by analysis of the absolute nadir values of platelet counts or the relative thrombocytopenia, that is, the percent decrease in platelet count. […] Models are evaluated for goodness of fit by minimization of sums of the squared residuals and by reduction of the estimated coefficient of variation for fitted parameters. Significance of the relationships are assessed by construction of contingency tables with subsequent chi-squared analysis.

clinical = settings: human, plasma, intravenous; for Vd: Vss, volume of distribution at steady-state
[2] = tested on: patients with T-cell lymphoma; assay: Baseline corrected QTc interval (ΔQTc) on ECG after FK228 (romidepsin) treatment, by ABCB1 genotype; assay type: in vivo, human
Protocol: Complete blood cell counts with differential are obtained immediately prior to FK228 administration and on days 2, 9, and 16 to evaluate FK228-related myelosuppression. Multiple surface electrocardiograms (ECGs) are obtained immediately before FK228 administration, and at 4 hours after the start of FK228 administration, to evaluate the ability of FK228 to delay cardiac repolarization. This effect is manifested on the ECG as prolongation of the QT interval. The QT interval is transformed into the heart-rate independent corrected value known as the QTc interval. Prolongation of the QTc interval is the electrocardiographic finding associated with increased susceptibility to the development of cardiac arrythmias, including ventricular arrhythmias such as Torsade de Pointes. Because measurement of the baseline value is a factor that critically influences the observed variability in the mean QTc interval, values are computed as the mean of multiple ECGs to enhance the precision of the measurement. This computation is performed by collecting drug-free ECGs on three or more different days. The on-study time point for obtaining an ECG are selected to coincide with the maximum plasma concentration of FK228, as recommended in the preliminary FDA concept paper: The Clinical Evaluation Of Qt/Qtc Interval Prolongation And Proarrhythmic Potential For Non-Antiarrhythmic Drugs (Nov. 15, 2002) available at: http://www.fda.gov/ohrms/dockets/ac/03/briefing/pubs %5Cprelim.pdf.
Relationships between various exposure measures, for example, plasma AUC, and hematological and cardiac toxicity are evaluated by sigmoid maximum-effect models. […] Hematological pharmacodynamics are evaluated by analysis of the absolute nadir values of platelet counts or the relative thrombocytopenia, that is, the percent decrease in platelet count. Data are fitted to a sigmoid maximum-effect model based on the modified Hill equation, as follows: E=E0+Emax×[(KP^γ)/(KP^γ+KP50^γ)]. In this equation, E0 is the minimum reduction possible, Emax is the maximum response (fixed to a value of 100), KP is the pharmacokinetic parameter of interest, KP50 the value of the pharmacokinetic parameter predicted to result in half of the maximum response, and γ is the Hill constant, which describes the sigmoidicity of the curve. Models are evaluated for goodness of fit by minimization of sums of the squared residuals and by reduction of the estimated coefficient of variation for fitted parameters. Significance of the relationships are assessed by construction of contingency tables with subsequent chi-squared analysis.
All data are reported as median values with range, unless specified otherwise. Interindividual pharmacokinetic variability is calculated as the coefficient of variation, and expressed as a percentage. Genotype-frequency analysis of Hardy-Weinberg equilibrium is carried out using Clump version 1.9. The linkage between each pair of SNPs is determined in terms of the classical statistic D′. The absolute value for D′ (|D′|) of 1 denotes complete linkage disequilibrium, while a value of 0 denotes complete linkage equilibrium. The effects of the variant genotypes on ΔQTc, relative thrombocytopenia, dose-normalized AUC, apparent oral clearance, half-life, volume of distribution at steady-state are evaluated statistically with the nonparametric Kruskal-Wallis test. A post-hoc distribution-free multiple comparison procedure is performed using the Dunn test with Bonferroni correction to test pairs of median observations. All statistical analyses are performed using the NCSS software program (version 2001; NCSS, Kaysville, Utah). The a priori level of significance is set at 0.05.

For `C/C=C1\NC(=O)[C@H]2CSSCC/C=C/[C@H](CC(=O)N[C@H](C(C)C)C(=O)N2)OC(=O)[C@H](C(C)C)NC1=O` [FK228, (E)-(1S,4S,10S,21R)-7-[(Z)-ethylidene]-4,21-diisopropyl-2-oxa-12,13-dithia-5,8,20,23-tetraazabicyclo [8,7,6]-tricos-16-ene-3,6,19,22-pentanone], which “association of AUC of FK228 with percentage decrease in platelet count” value [1] is on record?
The value was “weakly associated”.

What about the clearance (clinical; Clearance, All (N = 74), median) of the same molecule?
Its clearance is 238 mL/min.

And the clearance (clinical; Clearance, Group 1 (N = 45), median)?
Its clearance is 252 mL/min.

And the clearance (clinical; Clearance, Group 2 (N = 29), median)?
The clearance was 232 mL/min.

And the clearance (clinical; FK228 clearance, Example 1, all 42 patients combined, 4-hour infusion 14 or 18 mg/m^2, mean ± standard deviation)?
The clearance was 292 mL/min.

And the half-life (clinical; T1/2, half-life of the terminal phase, All (N = 74), median)?
Its half-life is 6 h.

What about the half-life (clinical; T1/2, half-life of the terminal phase, Group 1 (N = 45), median) of the same molecule?
The half-life was 6.8 h.

What about the half-life (clinical; T1/2, half-life of the terminal phase, Group 2 (N = 29), median) of the same molecule?
The half-life was 3.8 h.

What about the Vd (clinical; All (N = 74), median) of the same molecule?
The Vd was 93.6 L.

And the Vd (clinical; Group 1 (N = 45), median)?
Its Vd is 129 L.

And the Vd (clinical; Group 2 (N = 29), median)?
The Vd was 64.9 L.

What about the half-life (clinical; terminal half-life, Example 1, all 42 patients combined, 4-hour infusion 14 or 18 mg/m^2, mean ± standard deviation) of the same molecule?
Its half-life is 7.23 ± 3 h.

And the “interindividual variability in drug clearance, percent coefficient of variation” value (Example 1, 42 patients)?
Its value is “approximately 72%”.

And the “interindividual variability in drug clearance, percent coefficient of variation” value (Example 2)?
The value was “approximately 72%”.

What about the “ΔQTc at four hours” value ([2]; Example 1, ABCB1 2677GA genotype, n=1) of the same molecule?
The value was 17.8 ms.

What about the “ΔQTc at four hours, median” value ([2]; Example 1, ABCB1 2677GG genotype, n=10) of the same molecule?
Its value is 18.3 ms.

What about the “ΔQTc at four hours, median” value ([2]; Example 1, ABCB1 2677GT genotype, n=14) of the same molecule?
The value was 16.5 ms.

What about the “ΔQTc at four hours, median” value ([2]; Example 1, ABCB1 2677T/T genotype, n=4) of the same molecule?
The value was -5 ms.

And the “ΔQTc at four hours, median” value ([2]; Example 1, carriers of the heterozygote diplotype (2677/3435), n=7)?
Its value is 11.3 ms.

And the “ΔQTc at four hours, median” value ([2]; Example 1, carriers of the homozygote diplotype (2677/3435), n=19)?
Its value is 18.5 ms.

And the “ΔQTc at four hours, median” value ([2]; Example 1, homozygous for the ABCB1 2677TT/3435TT diplotype, n=3)?
Its value is -5.0 ms.

And the “ΔQTc at 4 hours, median” value ([2]; group 1, 0 reference alleles at both ABCB1 2677G>T/A and 3435C>T loci, N=4)?
The value was -1 ms.

What about the “ΔQTc at 4 hours, median” value ([2]; group 1, no reference alleles at the ABCB1 2677G>T/A locus, N=6) of the same molecule?
The value was -2.0 ms.

And the “ΔQTc at 4 hours, median” value ([2]; group 1, one or more reference alleles at the ABCB1 2677G>T/A locus, N=32)?
Its value is 18.2 ms.

And the “ΔQTc at 4 hours, median” value ([2]; group 1, single reference allele at either ABCB1 2677G>T/A or 3435C>T locus, N=6)?
The value was 9.7 ms.

What about the “ΔQTc at 4 hours, median” value ([2]; group 1, two or more reference allele copy numbers at ABCB1 2677G>T/A and 3435C>T loci, N=28) of the same molecule?
Its value is 18.5 ms.

And the “ΔQTc at 4 hours, median” value ([2]; group 2, 0 or 1 reference alleles at ABCB1 2677G>T/A, N=14)?
The value was 4 ms.

What about the “ΔQTc at 4 hours, median” value ([2]; group 2, more than 1 reference allele at ABCB1 2677G>T/A, N=4) of the same molecule?
The value was 24.5 ms.
